Reference: patent publication US5545625A, “Preventing conversion of citrulline to argininosuccinate to limit pathological nitric oxide overproduction” (The Medical College of Wisconsin Research Foundation, Inc., priority 1994, dated 1996)

What was measured:
Assay type in all cases: cell-based
[1] = test system: rat aortic smooth muscle cells; experiment: Nitrite production (indicator of cellular NO synthesis) by LPS/interferon-gamma induced rat aortic smooth muscle cells (Examples IV, V); details: 24 hours, FIG. 4
Protocol: Rat aortic smooth muscle cells were grown as described in Example I and were continuously treated with 30 μg/ml of bacterial lipopolysaccharide in combination with 50 ng/ml of interferongamma. Concentrations of mithramycin as indicated in FIG. 4 were added either simultaneously with immunostimulant (filled in circles in FIG. 4) or 4 hours later (open circles in FIG. 4).
Nitrite was used as an indicator of cellular NO synthesis and assay was carried out as described in Gross, S. S., et al, J. Biol. Chem. 267, 25722-25729 (1992). In the assay, cells were treated with serum- and arginine-free RPMI 1640 medium containing the desired test agents for 24 hours. The accumulation of nitrite in the cell culture medium was quantified colorimetrically after adding 100 μl of Griess reagent (1% sulfanilamide and 0.1% naphthalene diamine in 5% o-phosphoric acid) to an equal volume of sample.
Rat aortic smooth muscle cells were grown as described in Example I and were treated with 30 μg/ml of bacterial lipopolysaccharide in combination with 50 ng/ml of interferon-gamma. Concentrations of L-citrulline and L-arginine as indicated in FIG. 5 were added simultaneously with immunostimulant. Nitrite was used as an indicator of cellular NO synthesis and assay therefor was carried out as described in Example IV.

[2] = test system: argininosuccinate synthetase; experiment: Argininosuccinate synthetase (AS) activity of rat aortic smooth muscle cells induced with LPS/interferon-gamma in presence of test agent (Example I); details: mithramycin 0.001 to 10 μg/ml with LPS 30 μg/ml plus interferon-gamma 50 ng/ml, 24 hours; FIG. 1
Protocol: Aortic smooth muscle cells were cultured by explanting segments of the medial layer of aortae from adult male Fischer 344 rats. Aortae were removed aseptically and freed of adventitial and endothelial cells by scraping both the lumenal and abluminal surfaces. Medial fragments (1-2 mm) were allowed to attach to dry Primaria 25 cm^2 tissue culture flasks (Falcon; Oxnard, Calif.) which were kept moist with growth medium until cells emerged. Cultures were fed twice weekly with medium 199 containing 10% fetal bovine serum, 25 mM HEPES, 2 mM L-glutamine, 40 μg/ml endothelial cell growth supplement (Biomedical Technologies; Stoughton, Mass.) and 10 μg/ml gentamycin (GIBCO; Grand Island, N.Y.). When primary cultures became confluent, they were passaged by trypsinization and the explants were discarded. Cells in passage 10-15 were seeded at 20,000/well in 96-well plates. […]
Argininosuccinate synthetase activity was assayed based on the conversion of [^14 C]aspartate to [^14 C]argininosuccinate, as described in O'Brien, W. E., Biochemistry 18, 5353-5356, 1979, with the exception that aspartate was present at a concentration of 30 μm (0.021 μCi/nmol). […] Reactions were allowed to proceed for 90 minutes at 37° C before termination and quantification of the [^14 C]argininosuccinate formed, using ion exchange chromatography on Dowex 1-X8 (200-400 mesh, Bio-Rad).

[3] = test system: argininosuccinate synthetase mRNA; experiment: RT-PCR of argininosuccinate synthetase mRNA in induced rat aortic smooth muscle cells (Example III); details: LPS 30 μg/ml plus interferon-gamma 50 ng/ml with mithramycin, 6 hours; FIG. 3
Protocol: (§1) Rat aortic smooth muscle cells were grown as described in Example I and were treated with 30 μg/ml bacterial lipopolysaccharide in combination with 50 ng/ml interferon-gamma. […] RNA was extracted by a modified guanidinium isothiocyanate method (RNAzol; Cinna/Biotecz, Houston, Tex.). Reverse transcriptase-polymerase chain reaction was performed by standard methods using 1 μg of total RNA. This was followed by polymerase chain reaction amplification using synthetic gene-specific primers for rat argininosuccinate synthetase as described in Amaya, Y., et al, J. Biochem. (Tokyo) 103, 177-181 (1988), for argininosuccinate lyase as described in Surh, L. C., et al, Nucleic Acids Research, 16, 9352 (1988) and murine-inducible nitric oxide synthase as described in Lyons, C. R., et al, J. Biol. Chem. 267, 6370-6374 (1992). The primers are specifically described in Hattori, Y., et al, J. Biol. Chem. 269, 9405-9408 (1994). Polymerase chain reaction amplification was performed according to the following schedule: denaturation, annealing, and elongation at 95, 55 and 72° C. for 30 sec, 30 sec and 1 min, respectively, for 30 cycles. […] Polymerase chain reaction products were electrophoresed on a 1.5% agarose gel containing ethidium bromide and visualized by UV-induced fluorescence. […]

[4] = test system: nitric oxide synthase mRNA; experiment: RT-PCR of nitric oxide synthase mRNA in induced rat aortic smooth muscle cells (Example III); details: LPS 30 μg/ml plus interferon-gamma 50 ng/ml with mithramycin, 6 hours; FIG. 3
Protocol: as §1

SMILES: COC(C(=O)C(O)C(C)O)C1Cc2cc3cc(OC4CC(OC5CC(O)C(O)C(C)O5)C(O)C(C)O4)c(C)c(O)c3c(O)c2C(=O)C1OC1CC(OC2CC(OC3CC(C)(O)C(O)C(C)O3)C(O)C(C)O2)C(O)C(C)O1 (centres unmarked) [mithramycin]
- nitrite accumulation in cell culture medium ([1]; mithramycin added 4 hours after immunostimulant): effectiveness to block NO production is markedly diminished
- nitrite accumulation in cell culture medium ([1]; mithramycin added simultaneously with immunostimulant): inhibits induction of NO synthetic activity but is not a direct inhibitor of argininosuccinate synthetase or nitric oxide synthase
- argininosuccinate synthetase activity [2]: as a function of its concentration blocks argininosuccinate synthetase activity
- gene transcription of argininosuccinate synthetase (mRNA level) [3]: inhibits gene transcription of argininosuccinate synthetase
- gene transcription of nitric oxide synthase (mRNA level) [4]: inhibits gene transcription of argininosuccinate synthetase and nitric oxide synthase
